Results reported in paper PMC4186430, “Modeling of age-dependent amyloid accumulation and γ-secretase inhibition of soluble and insoluble Aβ in a transgenic mouse model of amyloid deposition” (Pharmacology Research & Perspectives, 2013).

Assay: Population pharmacokinetic modeling of MRK-560 plasma and brain exposure in mice
Format: in vivo, C57BL/6, Tg2576 and Tg2576 wild-type littermate mice
From the text: C57BL/6 female mice (Harlan Laboratories, Horst, The Netherlands), Tg2576 transgenic female mice (Taconics, Georgetown, NY), overexpressing human APP with the Swedish mutation (Hsiao et al. [1996]), and Tg2576 wild-type littermates were used in the experiments. The C57BL/6 and wild-type littermates were only used for pharmacokinetic PK sampling and analysis. The housing environment was humidity- and temperature-controlled with a constant 12-h light/dark cycle. The animals were kept in conventional housing (5–10 mice per cage) and had access to standard rodent chow and tap water ad libitum. The transgenic mice were aged at the local AstraZeneca (AZ) animal facilities. On the day of study, the mice were weighed. MRK-560 (synthesized in-house; AZ) or vehicle was administered by oral gavage. Three types of vehicles were used: (1) 1% MCC/NaCMC (Microcrystalline Cellulose/Sodiumcarboxymethyl Cellulose) +0.6% lipoid S100, (2) 20% HPβCD in 0.1 mol/L Meglumine, and (3) 40% HPβCD in 0.3 mol/L Meglumine. Observations of the animals’ health were made throughout all the experiments. Data from 23 MRK-560 studies were used in this analysis and details of all studies can be found in Table 1. For the AP analysis, data from vehicle and untreated Tg2576 mice from 48 additional (i.e., non-MRK-560) in-house studies were used. The additional dataset consisted of Aβ levels measured in Tg2576 mice of various ages, between 3.5 and 26 months at termination. Details of those data can be found in Appelkvist et al. ([2011]). In total, data from 71 preclinical studies were used.
Blood samples were collected by tail vein puncture in PK studies and occasionally in efficacy studies. At termination blood was withdrawn from anesthetized mice by heart puncture into prechilled microtainer Ethylenediaminetetraacetic acid tubes. Blood samples were immediately put on ice and centrifuged for 10 min at ∼3000g at +4°C within 20 min from sampling. Plasma was transferred to prechilled polypropylene tubes. The tubes were immediately frozen on dry ice and stored at −70°C until analysis.
Plasma samples and standards were precipitated with acetonitrile containing internal standard. After centrifugation, supernatant was transferred to a new 96-well plate, diluted with mobile phase, and injected on the LC/MS/MS system (Waters Corporation, Sollentuna, Sweden) (Bueters et al. [2011]). For the determination of the compound concentration in the brain, frozen mouse brains were weighed, and an ice-cold Ringer solution (two volumes per weight) was added. The brains were sonicated using a Multi-element probe SONICS VCX 500 (Newtown, CT). To 50 μL homogenized tissue 150 μL ice-cold acetonitrile containing an internal standard was added in a precipitation plate (96-well PP-plate; Waters, Milford, MA). After mixing and centrifugation (4°C, 4000 rpm, 20 min), supernatant was transferred to an analysis plate (PP-plate, Waters) and analyzed by LC/MS/MS (Borgegård et al. [2011]). As the brains were not perfused before exposure analysis, a volume of 1.3% of blood in the brain and the concentration of compound in plasma were used to calculate the brain concentration (Richard [1968]; Park and Sinko [2005]).
In the pharmacokinetic analysis, one- and two-compartmental first-order models were evaluated to fit the MRK-560 concentration–time profiles in plasma and brain. Separate absorption rate constants were estimated for oral and subcutaneous route of administration. A dose-dependent bioavailability was assessed and was modeled using the function shown in equation (1): [drawing 1] (1)
An instantaneous distribution of the unbound compound between plasma and brain was assumed. The brain exposure was modeled using equation (2): [drawing 2] (2) where CP was the plasma concentration, θ4 was the brain:plasma concentration ratio, and fu,pl and fu,br were the plasma and brain unbound fraction, respectively. […]

Brain:plasma ratio (estimated total brain:plasma ratio, constant over 0.01-15 μmol/L): 0.31
Kp (female, C57BL/6, Tg2576, Tg2576 wild-type littermates, mouse, brain, estimated total brain:plasma ratio, constant over 0.01-15 μmol/L): 0.3
clearance (female, C57BL/6, Tg2576, Tg2576 wild-type littermates, mouse, plasma, two-compartmental model): 2 mL/min/kg
differences in pharmacokinetics among C57BL/6, Tg2576 and Tg2576 wild-type littermates (mouse, in vivo): No differences
Q (two-compartmental model): 127 mL/min/kg
V2 (two-compartmental model): 0.28 L/kg
V3 (two-compartmental model): 2.9 L/kg
KA (oral) (two-compartmental model, absorption rate constant, oral): 0.41 h⁻¹
KA (s.c.) (two-compartmental model, absorption rate constant, s.c.): 0.81 h⁻¹
plasma exposure with vehicles 2 and 3 compared to vehicle 1 (vehicles 2, 3 = HPβCD/Meglumine, vehicle 1 = 1% MCC/NaCMC+0.6% lipoid S100): fourfold higher
SMILES: O=S(=O)(NC1CCC(c2cc(F)ccc2F)(S(=O)(=O)c2ccc(Cl)cc2)CC1)C(F)(F)F (stereo not drawn) [MRK-560, N-[cis-4-[(4-chlorophenyl)-sulfonyl]-4-(2,5-difluorophenyl)cyclohexyl]-1,1,1-trifluoromethanesulfonamide]
